Assay results: paper PMC8585833, “Serum concentrations of antidepressants, antipsychotics, and antiepileptics over the bariatric surgery procedure” (European Journal of Clinical Pharmacology, 2021)
Where two headings read alike, the source gives them in different places.

Columns and labels:
[1] = Dose-adjusted steady-state trough serum concentrations before and after low-calorie diet and bariatric surgery; format: in vivo, human
Excerpt: We designed the study as a naturalistic longitudinal, prospective case series with intra-individual comparisons of drug concentrations over time, before and up to 1 year after the surgical procedure.
The participants contributed blood samples to the current study during routine pre-surgery visits before, and post-surgery visits about 8 weeks, 6 months, and 1 year after, the surgery. Pre-surgery sampling generally occurred twice: at an initial preoperative assessment visit, and just before surgery. Between these visits, that is, before surgery, patients were required to adhere to a low-calorie diet and show a weight reduction. The samples were stored as serum in −80 °C at a biobank, and analysed after all samples had been collected.
Before every routine visit at which the sampling was to occur, we contacted the participants by telephone to systematically obtain information on the current dose as well as adherence to the drug treatment in question over the 2 preceding weeks. Samples were excluded from the data set if non-adherence less than four elimination half-lives prior to sampling was reported; exceptions were made for occasional missed doses of fluoxetine. Half-lives applied were those described for a drug or its metabolite in the summary of product characteristics. We also asked for and recorded concomitant drug treatment, weight, and smoking status. To be able to relate potential changes in concentration to health consequences, we asked the participants during the follow-up phone calls, using an open question, if anything had happened to their health since the last visit. To obtain trough blood concentrations, we strived to schedule the routine visits before lunchtime and the participants were instructed not to take morning tablets before the sampling.
Specific substances were analysed concomitantly, using clinical routine methods, at accredited laboratories at the Department of Clinical Chemistry, Sahlgrenska University Hospital, Gothenburg, Sweden, or (as for gabapentin, hydroxybupropion, mianserine, pregabalin, paroxetine and topiramate) at the Department of Clinical Pharmacology, St. Olav’s Hospital, Trondheim, Norway. Analysis methods were based on liquid chromatography/tandem mass spectrometry or (for lamotrigine and valproic acid) enzyme immunoassay.
(§1) Statistical analyses were performed using SPSS, version 23.0 (IBM SPSS Statistics for Windows, Armonk, NY, USA). Participants treated with the same substance before and after surgery, with one or more trough sample concentrations available, were included in the analysis. To allow interindividual and intraindividual comparisons, serum concentrations were adjusted for defined daily dose (DDD). For example, since DDD for citalopram is 20 mg, a DDD-adjusted citalopram concentration of 100 nmol/L could represent a measured concentration of 50, 100, or 200 nmol/L, given a daily dose of 10, 20, or 40 mg, respectively. To compare pre- to post-surgery concentrations, as well as pre- to post-diet concentrations, we used Wilcoxon signed rank test for substances with samples available for six or more individuals. We used Spearman’s correlation to explore the relationship between the ratio of the post-/pre-diet concentrations and (i) the distribution coefficient for the drug in question, i.e., the logarithm of the ratio of its concentration in a lipophilic and a hydrophilic solution (logD), as well as (ii) the weight loss in kilograms for pregabalin.

[2] = source not stated, cited from earlier work
[3] = Distribution coefficient (logD), octanol/water; format: physicochemical; conditions: two-phase system, pH 7.4; from logD
Method: as §1

[4] = historical data or matched non-surgery subjects as controls; cited from earlier work

| Compound | Dose-adjusted drug concentration Median (IQR), Pre-diet/pre-surgery ([1]; Table 2A, antiepileptics, trough serum, adjusted for dose in DDDs) | Dose-adjusted drug concentration Median (IQR), post-diet ([1]; Table 2B, antiepileptics, trough serum, adjusted for dose in DDDs, after pre-surgery low-calorie diet) | Dose-adjusted drug concentration Median (IQR), pre-diet ([1]; Table 2B, antiepileptics, trough serum, adjusted for dose in DDDs, before low-calorie diet) | Change in dose-adjusted concentration over the pre-surgery low-calorie diet ([1]; after the pre-surgery diet, before surgery, median weight reduction 6 kg) | concentration at 379 days after surgery (median), trough ([1]; human, in vivo, Table 2A, antiepileptics, trough serum, adjusted for dose in DDDs, last observation carried forward, median 379 days after surgery, read-out: Dose-adjusted drug concentration Median (IQR), Post-surgery) [µM] | logD ([2]; octanol/water, pH 7.4) | Abundance in water relative to octanol [3] [fold] | Dose-adjusted drug concentration Median (IQR), Pre-diet/pre-surgery ([1]; human, in vivo) | Dose-adjusted drug concentration Median (IQR), post-diet ([1]; human, in vivo) | Dose-adjusted drug concentration Median (IQR), pre-diet ([1]; human, in vivo) | Dose-adjusted drug concentration Median (IQR), Post-surgery ([1]; human, in vivo, 379 days after surgery (median), trough) | Abundance in octanol relative to water [3] | logD ([2]; selection limit for extremely hydrophilic or extremely lipophilic substances in literature search) | Concentration change after the bariatric surgery procedure [4] |
| --- | --- | --- | --- | --- | --- | --- | --- | --- | --- | --- | --- | --- | --- | --- |
| CC(C)C[C@H](CN)CC(=O)O [Pregabalin] | 8.5 (5.8–16) µmol/L | 25 (8–33) µmol/L | 9.5 (7–21) µmol/L | increased | 13 | −1.35 | > 20 | – | – | – | – | – | – | – |
| CN1CCN2c3ccccc3Cc3ccccc3C2C1 (stereo not drawn) [Mianserine] | – | – | – | – | – | 3.14 | – | 255 (N/A) nmol/L | 201 (N/A) nmol/L | 255 (N/A) nmol/L | 183 (N/A) nmol/L | more than 1 000 fold | – | – |
| C=CC[C@@H]1/C=C(\C)C[C@H](C)C[C@H](OC)[C@H]2O[C@@](O)(C(=O)C(=O)N3CCCC[C@H]3C(=O)O[C@H](/C(C)=C/[C@@H]3CC[C@@H](O)[C@H](OC)C3)[C@H](C)[C@@H](O)CC1=O)[C@H](C)C[C@@H]2OC [tacrolimus] | – | – | – | – | – | – | – | – | – | – | – | – | > 4 | appeared to decrease |
